In patent US20220202852A1, “METHODS AND COMPOSITIONS OF AQUEOUS HYPOBROMOUS ACID FOR THE TREATMENT AND PREVENTION OF INFLAMMATORY CONDITIONS” (Briotech, Inc., priority 2020, published 2022):

Tests used:
[1] = test system: spores of Bacillus subtilis; assay: Inactivation of resistant spores by HOBr/HOCl solutions; format: cell-based; conditions: 20 seconds contact
Description: Hypobromous acid (HOBr) was prepared by the exposure of a slight excess of one equivalent of aqueous bromide ion (as NaBr) to one equivalent of HOCl. This solution was prepared fresh for use in tests for inactivation of resistant microbial organisms.
Exposures as brief as 20 seconds to HOBr at approximately 25 ppm were sufficient to produce LRV of 6. In the same experimental protocol HOC1 at 230 ppm was required to produce 6 LRV in the same contact time. As soon as the HOCl concentration used was below 230 ppm, the LRVs fell into the 2-4 range.

E. coli = assay: Comparative antimicrobial efficacy of HOBr and HOCl solutions vs suspensions; format: cell-based; conditions: 20 s exposure
Description: (§1) FIGS. 3A-3C compare antimicrobial efficacy comparison of HOBr and HOCl solutions: E. coli, 20 s exposure (3A); S. aureus, 40 s exposure (3B); and A. niger, 40 s exposure (3C). HOBr=diagonal lines; HOCl=stippling.
(§2) Preparations of HOCl stored at 22° C. for several weeks and freshly prepared HOBr solutions were compared in their antimicrobial properties versus suspensions of E. coli, S. aureus, and A. niger (see FIG. 3).

S. aureus = assay: as above; format: cell-based; conditions: 40 s exposure
Description: as §1, §2

[2] = test system: human skin and mucous membranes, including conjunctiva; assay: Safety of topically applied freshly prepared aqueous HOBr; format: in vivo; conditions: HOBr solution made from HOCl containing 200 ppm of Cl plus an equivalent of NaBr
From the text: A solution of HOBr was made by addition of an equivalent of NaBr to a solution of HOCl containing 200 ppm of Cl.

A. niger = assay: Comparative antimicrobial efficacy of HOBr and HOCl solutions vs suspensions; format: cell-based; conditions: all concentrations tested, 40 s exposure
Description: as §1, §2

[3] = lower concentrations (<115 ppm)

Structure (SMILES)	LRV, inactivation of Bacillus subtilis spores ([1]; approximately 25 ppm)	inactivating E. coli, comparative efficacy (E. coli; high concentrations (≥115 ppm))	inactivating E. coli, comparative efficacy (E. coli; [3])	inactivating S. aureus, comparative efficacy (S. aureus; high concentrations (≥115 ppm))	inactivating S. aureus, comparative efficacy (S. aureus; [3])	adverse effects on epithelial surfaces after topical application [2]	LRV, inactivation of Bacillus subtilis spores ([1]; 230 ppm)	LRV, inactivation of Bacillus subtilis spores ([1]; concentration below 230 ppm)	efficacy against A. niger, comparative (A. niger)
OBr [HOBr, Hypobromous acid]	6	equally effective	markedly more effective than HOCl	equally effective	markedly more effective than HOCl	without any indication of adverse effects	–	–	–
OCl [HOCl, hypochlorous acid]	no detectable effect	equally effective	–	equally effective	–	–	6	2-4	equally or more effective than HOBr
